The results in this text go back to US4105651A (The United States of America as represented by the …, priority 1976, dated 1978).

The structures appear in SMILES notation. Where two headings read alike, the source gives them in different places.

The test system of the experiment is opiate receptor sites. The source says: The tests which were made in the laboratory were of the myenteric plexus-longitudinal muscle of the guinea pig ileum and the vas deferens of the mouse. In the whole animal the rates of onset and recovery are directly related to lipid solubility which facilitates drug movement to and from the brain.

As to `CC(C)C[C@H](NC(=O)[C@H](Cc1ccccc1)NC(=O)CNC(=O)CNC(=O)[C@@H](N)Cc1ccc(O)cc1)C(=O)O` [leucine-enkephalin, H-Tyr-Gly-Gly-Phe-Leu-OH], the “agonist activity: inhibition of electrically evoked contractions” value (“agonist activity: inhibition” below) (guinea pig ileum) is listed as “dose-related inhibition” and the “agonist activity: inhibition” value (mouse vas deferens) was “dose-related inhibition”.
Take `CSCC[C@H](NC(=O)[C@H](Cc1ccccc1)NC(=O)CNC(=O)CNC(=O)[C@@H](N)Cc1ccc(O)cc1)C(=O)O` [methionine-enkephalin, H-Tyr-Gly-Gly-Phe-Met-OH]: the “agonist activity: inhibition” value reads like this: (guinea pig ileum) “dose-related inhibition”; (mouse vas deferens) “dose-related inhibition”.
